Like-named read-outs stand apart in the source and are kept apart here.
Tests used:
[1] = tested on: caterpillars of the armyworm (Spodoptera frugiperda); test: Spodoptera frugiperda test (SPODFR spray treatment); type: in vivo; details: Spodoptera frugiperda, foliar, read-out: effect in % (caterpillars killed)
Description: Solvent: 78.0 parts by weight of acetone

[2] = log P determination by HPLC (EEC Directive 79/831 Annex V.A8); type: physicochemical
Description: The measurements were carried out using an Agilent 1100 LC system with a 50*4.6 Zorbax Eclipse C18 1.8 μm column (oven temperature 55° C., flow rate 2.0 ml/min).
The following mobile phases were used:
Mobile phase A: acetonitrile+1000 μl of formic acid/l
Mobile phase B: Millipore water+900 μl of formic acid/l

[3] = tested on: larvae of the mustard beetle (Phaedon cochleariae); test: Phaedon test (PHAECO spray treatment); details: for pest or weed control at 100 g/ha: Phaedon cochleariae, in Brassica rapa, foliar, read-out: effect in % (beetle larvae killed)
[4] = application rate 100 g/ha, maize leaf discs
[5] = reversed-phase HPLC, Zorbax Eclipse C18 column, by HPLC according to EEC Directive 79/831 Annex V.A8, read-out: log P
[6] = reversed-phase HPLC, Zorbax Eclipse C18 column, determined by HPLC according to EEC Directive 79/831 Annex V.A8, read-out: log P

chromatographic logP [2, 5] | chromatographic logP [2, 6] | Compound | pest or weed control at 100 g/ha [1, 4] [%] | pest or weed control at 100 g/ha [3] [%] | pest or weed control at 100 g/ha ([1]; in Zea mays) [%] | chromatographic logP ([2]; log P) | chromatographic logP ([2]; by HPLC according to EEC Directive 79/831 Annex V.A8, read-out: log P) | Kill in %/7 days ([3]; 0.8 g/ha, 7 days) [%]
3.59 |  | Cc1cc(C#N)cc(C(=O)NC(C)(C)C)c1NC(=O)c1cc(Cn2nnc(C(F)(F)F)n2)nn1-c1ncccc1C(F)(F)F [Example 232] | ≥ 80 | ≥ 80 |  |  |  | 
 |  | CCNC(=O)c1cc(Cl)cc(C)c1NC(=O)c1cc(Cn2nnc(C(F)(F)C(F)(F)F)n2)nn1-c1ncccc1Cl [Example 128] |  | ≥ 80 | ≥ 80 | 3.65 |  | 
 |  | Cc1cc(F)cc(C(=O)NC(C)(C)C)c1NC(=O)c1cc(Cn2nnc(C(F)(F)F)n2)nn1-c1ncccc1Cl [Example 115] |  | ≥ 80 | ≥ 80 | 3.51 |  | 
 |  | Cc1cc(C#N)cc(C(=O)NCc2ccoc2)c1NC(=O)c1cc(Cn2nnc(C(F)(F)F)n2)nn1-c1ncccc1Cl [Example 99] |  | ≥ 80 | ≥ 80 | 3.09 |  | 
3.84 |  | Cc1cc(C#N)cc(C(=O)NCC2CC2)c1NC(=O)c1cc(Cn2nnc(C(F)(C(F)(F)F)C(F)(F)F)n2)nn1-c1ncccc1Cl [Example 373] | ≥ 80 | ≥ 80 |  |  |  | 
 |  | CNC(=O)c1cc(C#N)cc(C)c1NC(=O)c1cc(Cn2nnc(C(F)(F)C(F)(F)F)n2)nn1-c1ncccc1Cl [Example 213] |  | ≥ 80 | ≥ 80 | 3.05 |  | 
 |  | CNC(=O)c1cc(Br)cc(C)c1NC(=O)c1cc(Cn2nnc(C(F)(F)F)n2)nn1-c1ncccc1Cl [Example 28] |  | ≥ 80 | ≥ 80 | 3.05 |  | 
3.21 |  | Cc1cc(Br)cc(C(=O)NCC#N)c1NC(=O)c1cc(Cn2nnc(C(F)(F)F)n2)nn1-c1ncccc1C(F)(F)F [Example 248] | ≥ 80 | ≥ 80 |  |  |  | 
 |  | CNC(=O)c1cc(Cl)cc(C)c1NC(=O)c1cc(Cn2nnc(C(C)(C)C)n2)nn1-c1ncccc1Cl [Example 103] |  | ≥ 80 | ≥ 80 | 3.02 |  | 
 |  | Cc1cc(Br)cc(C(=O)NC(C)C)c1NC(=O)c1cc(Cn2nnc(C(F)(F)C(F)(F)F)n2)nn1-c1ncccc1Cl [Example 146] |  | ≥ 80 | ≥ 80 | 3.95 |  | 
 |  | Cc1cc(Cl)cc(C(=O)NC(C)(C)C)c1NC(=O)c1cc(Cn2nnnc2C(F)(F)F)nn1-c1ncccc1Cl [Example 197] |  | ≥ 80 | ≥ 80 | 3.47 |  | 
 |  | CCNC(=O)c1cc(Cl)cc(Cl)c1NC(=O)c1cc(Cn2nnc(C(F)(F)C(F)(F)F)n2)nn1-c1ncccc1Cl [Example 152] |  | ≥ 80 | ≥ 80 | 3.57 |  | 
 | 3.8 | Cc1cc(C#N)cc(C(=O)NC(C)C2CC2)c1NC(=O)c1cc(Cn2nnnc2C(F)(C(F)(F)F)C(F)(F)F)nn1-c1ncccc1Cl (centres unmarked) [Example 499] | ≥ 80 | ≥ 80 |  |  |  | 
 |  | Cc1cc(C#N)cc(C(=O)NC(C)(C)C)c1NC(=O)c1cc(C(C)n2nnc(C(F)(F)F)n2)nn1-c1ncccc1Cl (centres unmarked) [Example 436] |  | ≥ 80 | ≥ 80 | 3.7 |  | 
 |  | Cc1cc(I)cc(C(=O)NC(C)(C)C)c1NC(=O)c1cc(Cn2nnc(C(F)(F)C(F)(F)C(F)(F)F)n2)nn1-c1ncccc1Cl [Example 121] |  | ≥ 80 | ≥ 80 |  | 4.86 | 
 |  | Cc1cc(I)cc(C(=O)NC2CCC2)c1NC(=O)c1cc(Cn2nnc(C(F)(F)F)n2)nn1-c1ncccc1Cl [Example 72] |  | ≥ 80 |  | 3.85 |  | 
 |  | Cc1cc(Cl)cc(C(=O)NCC#N)c1NC(=O)c1cc(Cn2nnc(C(F)F)n2)nn1-c1ncccc1Cl [Example 261] |  | ≥ 80 | ≥ 80 | 2.5 |  | 
 | 3.2 | Cc1cc(C#N)cc(C(=O)NCC(F)(F)F)c1NC(=O)c1cc(Cn2nnnc2C(F)(F)F)nn1-c1ccccc1Cl [Example 538] | ≥ 80 | ≥ 80 |  |  |  | 
 |  | Cc1cc(I)cc(C(=O)NC(C)C)c1NC(=O)c1cc(Cn2nnc(C(F)F)n2)nn1-c1ncccc1Cl [Example 277] |  | ≥ 80 | ≥ 80 | 3.2 |  | 
 |  | CC(C)(C)NC(=O)c1cc(Cl)cc(Cl)c1NC(=O)c1cc(Cn2nnnc2C(F)(F)C(F)(F)F)nn1-c1ncccc1Cl [Example 206] |  | ≥ 80 | ≥ 80 | 3.88 |  | 

chromatographic logP [2, 5] | chromatographic logP [2, 6] | Compound | pest or weed control at 100 g/ha [1, 4] [%] | pest or weed control at 100 g/ha [3] [%] | pest or weed control at 100 g/ha ([1]; in Zea mays) [%] | chromatographic logP ([2]; log P) | chromatographic logP ([2]; by HPLC according to EEC Directive 79/831 Annex V.A8, read-out: log P) | Kill in %/7 days ([3]; 0.8 g/ha, 7 days) [%]
 |  | Cc1cc(Cl)cc(C(=O)NC2CCC2)c1NC(=O)c1cc(Cn2nnc(C(F)(F)F)n2)nn1-c1ncccc1Cl [Example 49] |  | ≥ 80 | ≥ 80 | 3.6 |  | 
 |  | Cc1cc(Cl)cc(C(=O)NC2CC2)c1NC(=O)c1cc(Cn2nnc(C(F)F)n2)nn1-c1ncccc1Cl [Example 230] |  | ≥ 80 | ≥ 80 | 2.72 |  | 
 |  | Cc1cc(C#N)cc(C(=O)NCC(C)C)c1NC(=O)c1cc(Cn2nnc(C(F)(F)F)n2)nn1-c1ncccc1Cl [Example 38] |  | ≥ 80 | ≥ 80 | 3.37 |  | 
 | 3.3 | CCNC(=O)c1cc(I)cc(C)c1NC(=O)c1cc(Cn2nnnc2C(F)(F)F)nn1-c1ncccc1C(F)(F)F [Example 457] | ≥ 80 | ≥ 80 |  |  |  | 
3.4 |  | CNC(=O)c1cc(I)cc(C)c1NC(=O)c1cc(Cn2nnc(C(F)(F)F)n2)nn1-c1ncccc1C(F)(F)F [Example 247] | ≥ 80 | ≥ 80 |  |  |  | 
 | 3.82 | CNC(=O)c1cc(C#N)cc(C)c1NC(=O)c1cc(Cn2nnc(C(F)(F)F)n2)nn1-c1ccc(OC(F)(F)F)cc1Cl [Example 531] | ≥ 80 | ≥ 80 |  |  |  | 
 | 3.17 | CCNC(=O)c1cc(Br)cc(C)c1NC(=O)c1cc(Cn2nnnc2C(F)(F)F)nn1-c1ncccc1C(F)(F)F [Example 453] | ≥ 80 | ≥ 80 |  |  |  | 
3.48 |  | COCCNC(=O)c1cc(C#N)cc(C)c1NC(=O)c1cc(Cn2nnc(C(F)(C(F)(F)F)C(F)(F)F)n2)nn1-c1ncccc1Cl [Example 395] | ≥ 80 | ≥ 80 |  |  |  | 
 |  | Cc1cc(I)cc(C(=O)NCC2CC2)c1NC(=O)c1cc(Cn2nnc(C(F)(F)F)n2)nn1-c1ncccc1Cl [Example 73] |  | ≥ 80 | ≥ 80 | 3.78 |  | 
 |  | CCNC(=O)c1cc(Cl)cc(C)c1NC(=O)c1cc(Cn2nnc(C(F)F)n2)nn1-c1ncccc1Cl [Example 257] |  | ≥ 80 | ≥ 80 | 2.69 |  | 
4.13 |  | Cc1cc(Br)cc(C(=O)NC(C)(C)C)c1NC(=O)c1cc(Cn2nnc(C(F)(F)F)n2)nn1-c1ncccc1C(F)(F)F [Example 245] | ≥ 80 | ≥ 80 |  |  |  | 
 | 2.94 | CNC(=O)c1cc(Cl)cc(C)c1NC(=O)c1cc(Cn2nnnc2C(F)(F)F)nn1-c1ccccc1F [Example 474] | ≥ 80 | ≥ 80 |  |  |  | 
3.97 |  | CNC(=O)c1cc(Cl)cc(C)c1NC(=O)c1cc(Cn2nnc(C(F)(F)F)n2)nn1-c1ccc(Cl)cc1Cl [Example 239] | ≥ 80 | ≥ 80 |  |  |  | 
 |  | Cc1cc(Cl)cc(C(=O)NCC2CC2)c1NC(=O)c1cc(Cn2nnc(C(F)(F)F)n2)nn1-c1ncccc1Cl [Example 46] |  | ≥ 80 | ≥ 80 | 3.53 |  | 
3.39 |  | Cc1cc(Cl)cc(C(=O)NC2CC2)c1NC(=O)c1cc(Cn2nnc(C(F)(F)F)n2)nn1-c1ncccc1C(F)(F)F [Example 225] | ≥ 80 | ≥ 80 |  |  |  | 
 |  | Cc1cc(C#N)cc(C(=O)NC(C)C2CCC2)c1NC(=O)c1cc(Cn2nnnc2C(F)(F)F)nn1-c1ncccc1Cl (centres unmarked) [Example 194] |  | ≥ 80 |  | 3.25 |  | 
 |  | Cc1cc(C#N)cc(C(=O)NC(C)CC(F)(F)F)c1NC(=O)c1cc(Cn2nnc(C(F)(F)F)n2)nn1-c1ncccc1Cl (centres unmarked) [Example 75] |  | ≥ 80 |  | 3.38 |  | 
3.6 |  | CCOC1CCC(NC(=O)c2cc(C#N)cc(C)c2NC(=O)c2cc(Cn3nnc(C(F)(F)F)n3)nn2-c2ncccc2Cl)CC1 (centres unmarked) [Example 344] |  | ≥ 80 |  |  |  | 
 |  | Cc1cc(C#N)cc(C(=O)NCC2CCCCC2)c1NC(=O)c1cc(Cn2nnc(C(F)(F)F)n2)nn1-c1ncccc1Cl [Example 93] |  | ≥ 80 |  | 3.96 |  | 
 |  | Cc1cc(Cl)cc(C(=O)NC(C)C)c1NC(=O)c1cc(Cn2nnc(C(F)(F)C(F)(F)F)n2)nn1-c1ncccc1Cl [drawing 595] |  |  |  |  |  | 100

Compound | chromatographic logP [2, 5] | chromatographic logP [2, 6] | pest or weed control at 100 g/ha [1, 4] [%] | pest or weed control at 100 g/ha [3] [%] | pest or weed control at 100 g/ha ([1]; in Zea mays) [%] | chromatographic logP ([2]; log P) | chromatographic logP ([2]; by HPLC according to EEC Directive 79/831 Annex V.A8, read-out: log P) | Kill in %/7 days ([3]; 0.8 g/ha, 7 days) [%]
CNC(=O)c1cc(C#N)cc(C)c1NC(=O)c1cc(Cn2nnc(C(F)(F)F)n2)nn1-c1ncccc1Cl [Example 12] | 2.66 |  |  | ≥ 80 | ≥ 80 |  |  | 

Reference: patent US8324390B2, “Tetrazole-substituted anthranilamides as pesticides” (Bayer CropScience AG, priority 2008, dated 2012)
